Literature values as cited in PMC9284491 (Nature Communications, 2022).

Assays:
[1] = 500 mg intramuscular (day 1, day 14 of cycle 1, monthly from cycle 2); cited from earlier work
[2] = biological target: T1, ER (Homo sapiens, UniProt P03372); settings: maximum 500 mg dose; cited from earlier work
T1 sequence (P03372 1-595): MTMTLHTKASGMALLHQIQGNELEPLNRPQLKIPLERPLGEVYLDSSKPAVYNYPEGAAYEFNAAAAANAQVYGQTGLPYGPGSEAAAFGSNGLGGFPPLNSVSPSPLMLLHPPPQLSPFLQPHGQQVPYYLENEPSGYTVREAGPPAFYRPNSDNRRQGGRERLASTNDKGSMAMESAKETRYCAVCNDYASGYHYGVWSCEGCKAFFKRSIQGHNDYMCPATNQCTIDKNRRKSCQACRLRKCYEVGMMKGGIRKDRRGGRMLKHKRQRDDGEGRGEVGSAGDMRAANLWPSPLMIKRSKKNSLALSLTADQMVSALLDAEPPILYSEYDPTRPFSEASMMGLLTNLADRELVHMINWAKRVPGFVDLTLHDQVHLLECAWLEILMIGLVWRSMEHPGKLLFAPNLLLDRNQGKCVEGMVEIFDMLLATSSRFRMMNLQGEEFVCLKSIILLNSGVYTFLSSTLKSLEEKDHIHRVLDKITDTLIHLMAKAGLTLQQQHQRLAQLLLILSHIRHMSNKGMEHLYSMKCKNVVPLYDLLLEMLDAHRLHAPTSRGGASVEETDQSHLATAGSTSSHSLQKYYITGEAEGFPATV

C[C@]12CC[C@@H]3c4ccc(O)cc4C[C@@H](CCCCCCCCC[S+]([O-])CCCC(F)(F)C(F)(F)F)[C@H]3[C@@H]1CC[C@@H]2O (some centres unmarked) [fulvestrant]
Ctrough at steady state [1]: 12.5 ng/mL | ER occupancy at maximum dose [2]: does not fully occupy the ER
